We go through 22 compounds from ChEMBL document CHEMBL3856280, “Targeting the HSP60/10 chaperonin systems of Trypanosoma brucei as a strategy for treating African sleeping sickness” (Bioorg Med Chem Lett, 2016).

Data set [1] deals with Trypanosoma brucei brucei. Description: Antitrypanosomal activity against Trypanosoma brucei brucei Lister 427 VSG 221 [TetR T7RNAP] transgenic bloodstream forms assessed as reduction in cell viability after 48 hrs by alamar blue assay. The settings on record: Lister 427 VSG 221, 48 h. The format is functional.
Data set [2] has as its target T1, E. coli GroEL/ES (Escherichia coli, UniProt P0A6F5). Briefly: Inhibition of Escherichia coli GroEL/GroES expressed in Escherichia coli DH5alpha/BL21 (DE3) assessed as inhibition of denatured MDH refolding preincubated for 10 mins followed by ATP addition measured after 20 to 40 mins by fluorescence based assay.
Data set [3] addresses T2, HSP60/HSP10 (Homo sapiens, UniProt P10809). Briefly: Inhibition of human mitochondrial HSP60/HSP10 expressed in Escherichia coli DH5alpha/BL21 (DE3) assessed as inhibition of denatured MDH refolding preincubated for 10 mins followed by ATP addition measured after 40 to 60 mins by fluorescence based assay.
In data set [4] the target is T1, E. coli GroEL/ES. Description: Inhibition of Escherichia coli GroEL/GroES-ATPase activity expressed in Escherichia coli DH5alpha/BL21 (DE3) assessed as inhibition of denatured MDH refolding preincubated for 10 mins followed by ATP addition measured after 20 to 40 mins by malachite green dye based fluorescence assay.
Data set [5] has as its target T2, HSP60/HSP10. Briefly: Inhibition of human mitochondrial HSP60/HSP10-ATPase activity expressed in Escherichia coli DH5alpha/BL21 (DE3) assessed as inhibition of denatured MDH refolding preincubated for 10 mins followed by ATP addition measured after 40 to 60 mins by malachite green dye based fluorescence assay.
Data set [6] can be described thus: Cytotoxicity against human THLE3 cells assessed as reduction in cell viability after 48 hrs by alamar blue assay. The format is toxicity, cell-based.
A short description of data set [7]: Cytotoxicity against HEK293 cells assessed as reduction in cell viability after 48 hrs by alamar blue assay. Format: toxicity, cell-based. The settings on record: human.
Data set [8] in a line: Inhibition of pig heart native MDH reporter reaction after 20 to 40 mins by fluorescence based assay. The arrangement: species or system Sus scrofa.

T2 sequence (P10809 whole entry): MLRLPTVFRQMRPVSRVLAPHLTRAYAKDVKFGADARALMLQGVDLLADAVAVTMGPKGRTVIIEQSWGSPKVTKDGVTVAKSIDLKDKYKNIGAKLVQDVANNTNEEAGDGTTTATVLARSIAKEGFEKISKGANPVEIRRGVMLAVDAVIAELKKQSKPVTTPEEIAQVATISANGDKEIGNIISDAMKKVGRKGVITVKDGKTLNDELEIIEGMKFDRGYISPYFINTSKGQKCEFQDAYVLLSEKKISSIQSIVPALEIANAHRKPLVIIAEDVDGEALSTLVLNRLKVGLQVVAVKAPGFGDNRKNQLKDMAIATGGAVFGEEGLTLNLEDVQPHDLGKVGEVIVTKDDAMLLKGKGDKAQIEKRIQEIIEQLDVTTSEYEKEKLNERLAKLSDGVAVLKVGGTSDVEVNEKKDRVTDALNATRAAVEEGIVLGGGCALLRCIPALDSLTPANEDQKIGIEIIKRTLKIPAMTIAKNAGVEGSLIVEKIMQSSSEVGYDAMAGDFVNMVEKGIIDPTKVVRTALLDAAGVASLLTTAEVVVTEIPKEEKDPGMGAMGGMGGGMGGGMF
T2 sequence (P61604 whole entry, further chain): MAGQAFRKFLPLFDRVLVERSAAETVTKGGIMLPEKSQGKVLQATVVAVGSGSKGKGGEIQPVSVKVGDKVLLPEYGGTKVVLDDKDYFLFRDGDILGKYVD
T1 sequence (P0A6F5 whole entry, looked up): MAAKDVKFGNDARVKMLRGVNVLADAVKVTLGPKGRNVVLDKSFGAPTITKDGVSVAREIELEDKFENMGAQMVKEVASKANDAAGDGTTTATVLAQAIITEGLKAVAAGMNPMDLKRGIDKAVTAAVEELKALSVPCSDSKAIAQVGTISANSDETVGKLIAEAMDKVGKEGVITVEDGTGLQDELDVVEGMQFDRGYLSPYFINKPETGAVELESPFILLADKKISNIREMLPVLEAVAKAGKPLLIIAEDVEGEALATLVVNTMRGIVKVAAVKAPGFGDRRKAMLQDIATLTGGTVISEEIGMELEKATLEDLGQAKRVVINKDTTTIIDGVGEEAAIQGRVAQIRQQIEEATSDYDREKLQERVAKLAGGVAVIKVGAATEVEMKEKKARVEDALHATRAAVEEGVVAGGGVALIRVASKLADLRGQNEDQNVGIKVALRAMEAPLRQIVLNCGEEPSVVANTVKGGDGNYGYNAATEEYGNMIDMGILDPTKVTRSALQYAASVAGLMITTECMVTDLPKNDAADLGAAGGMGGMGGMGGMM

For the compound `CS(=O)(=O)Nc1ccc(-c2nc3cc(NS(C)(=O)=O)ccc3o2)cc1`, in data set [1], the EC50 was above 42 µM. The IC50 is above 100 µM in data set [2]; above 100 µM in data set [3]; above 250 µM in data set [4]; above 250 µM in data set [5]; above 63 µM in data set [8]. The EC50 at 48 h in data set [6] and in data set [7] was above 100 µM throughout.
Regarding `O=S(=O)(Nc1ccc(-c2nc3cc(NS(=O)(=O)c4cccc(F)c4)ccc3o2)cc1)c1cccc(F)c1`, in data set [1], the EC50 was found to be 10 µM. The IC50 in data set [2] was 5.3 µM; in data set [3], 68 µM; in data set [4] it was 5.1 µM; in data set [5], above 250 µM; in data set [8], above 63 µM. Further, the results for the EC50 at 48 h in data set [6] and in data set [7] were 20 µM and 24 µM, respectively.
Take `O=S(=O)(Nc1ccc(-c2nc3cc(NS(=O)(=O)c4ccccc4)ccc3o2)cc1)c1ccccc1`: the EC50 in data set [1] came out at 6.4 µM. Further, the IC50 in data set [2] was 3.9 µM; in data set [3], above 100 µM; in data set [4], 4.6 µM; in data set [5] it was above 250 µM; in data set [8], above 63 µM. Also, the EC50 at 48 h in data set [6] was found to be 19 µM; in data set [7], 15 µM.
Turning to `O=S(=O)(Nc1ccc(-c2nc3cc(NS(=O)(=O)c4cccc(Cl)c4)ccc3o2)cc1)c1cccc(Cl)c1`, the EC50 in data set [1] was found to be 4.5 µM. Also, the IC50 in data set [2] was 18 µM; in data set [3], above 100 µM; in data set [4] it was above 250 µM; in data set [5], above 250 µM; in data set [8], above 63 µM. Besides, the figures for the EC50 at 48 h in data set [6] and in data set [7] were 17 µM and 21 µM, respectively.
Take `O=S(=O)(Nc1ccc(-c2nc3cc(NS(=O)(=O)c4ccccc4O)ccc3o2)cc1)c1ccccc1O`: the EC50 in data set [1] stood at 5 µM. In addition, the half-maximal inhibitory concentration (IC50) in data set [2] was 7.5 µM; in data set [3], 13 µM; in data set [4] it was 36 µM; in data set [5], 33 µM. For the same compound, the values for the EC50 at 48 h in data set [6] and in data set [7] were 19 µM and 18 µM, respectively.
Take `O=S(=O)(Nc1ccc(-c2nc3cc(NS(=O)(=O)c4cccc5nsnc45)ccc3o2)cc1)c1cccc2nsnc12`: the EC50 in data set [1] is above 42 µM. Besides, the IC50 is 22 µM in data set [2]; 98 µM in data set [3]; 127 µM in data set [4]; 152 µM in data set [5]; above 63 µM in data set [8]. Moreover, the EC50 at 48 h is above 100 µM in data set [6] and 52 µM in data set [7].
Consider `O=S(=O)(Nc1ccc(-c2nc3cc(NS(=O)(=O)c4ccc(F)cc4)ccc3o2)cc1)c1ccc(F)cc1`, for which the EC50 in data set [1] turned out to be 4.3 µM. Besides, the IC50 in data set [2] was 3.8 µM; in data set [3], above 100 µM; in data set [4], 4.3 µM; in data set [5] it was above 250 µM; in data set [8], above 63 µM. The results for the EC50 at 48 h in data set [6] and in data set [7] were 19 µM and 21 µM, respectively.
With `O=S(=O)(Cc1ccccc1)Nc1ccc(-c2nc3cc(NS(=O)(=O)Cc4ccccc4)ccc3o2)cc1`, the EC50 in data set [1] is 13 µM. The IC50 is 55 µM in data set [2]; above 100 µM in data set [3]; 208 µM in data set [4]; above 250 µM in data set [5]; above 63 µM in data set [8]. Moreover, the EC50 at 48 h was determined as 29 µM in data set [6] and 19 µM in data set [7].
Consider `O=S(=O)(Nc1ccc(-c2nc3cc(NS(=O)(=O)c4ccccc4F)ccc3o2)cc1)c1ccccc1F`, for which the EC50 in data set [1] is 19 µM. Further, the IC50 in data set [2] is 22 µM; in data set [3] it was 77 µM; in data set [4], above 250 µM; in data set [5], above 250 µM; in data set [8], above 63 µM. Moreover, the EC50 at 48 h in data set [6] came out at 55 µM; in data set [7], 31 µM.
With `O=c1ccc2cc(S(=O)(=O)Nc3ccc(-c4nc5cc(NS(=O)(=O)c6ccc7oc(=O)ccc7c6)ccc5o4)cc3)ccc2o1`, the concentration giving a half-maximal response (EC50) in data set [1] was above 42 µM. The IC50 is 18 µM in data set [2]; 70 µM in data set [3]; 83 µM in data set [4]; 201 µM in data set [5]; above 63 µM in data set [8]. Besides, the EC50 at 48 h in data set [6] and in data set [7] was above 100 µM in each case.
In the case of `O=S(=O)(Nc1ccc(-c2nc3cc(NS(=O)(=O)c4cccc5ccccc45)ccc3o2)cc1)c1cccc2ccccc12`, the EC50 in data set [1] worked out at 2.1 µM. The IC50 was 23 µM in data set [2]; above 100 µM in data set [3]; 54 µM in data set [4]; 144 µM in data set [5]; above 63 µM in data set [8]. Besides, the results for the EC50 at 48 h in data set [6] and in data set [7] were 69 µM and above 100 µM, respectively.
Regarding `CCCS(=O)(=O)Nc1ccc(-c2nc3cc(NS(=O)(=O)CCC)ccc3o2)cc1`, in data set [1], the EC50 came to 18 µM. Also, the IC50 was above 100 µM in data set [2]; above 100 µM in data set [3]; above 250 µM in data set [4]; above 250 µM in data set [5]; above 63 µM in data set [8]. Moreover, the EC50 at 48 h in data set [6] and in data set [7] was above 100 µM each time.
Take `O=S(=O)(Nc1ccc(-c2nc3cc(NS(=O)(=O)c4cccc(Br)c4)ccc3o2)cc1)c1cccc(Br)c1`: the EC50 in data set [1] turned out to be 8 µM. The IC50 was 23 µM in data set [2]; above 100 µM in data set [3]; 45 µM in data set [4]; above 250 µM in data set [5]; above 63 µM in data set [8]. In addition, the EC50 at 48 h in data set [6] worked out at 21 µM; in data set [7], 25 µM.
For `O=S(=O)(Nc1ccc(-c2nc3cc(NS(=O)(=O)c4cccc5nonc45)ccc3o2)cc1)c1cccc2nonc12`, the EC50 in data set [1] was above 42 µM. Further, the IC50 in data set [2] was 32 µM; in data set [3], 66 µM; in data set [4], above 250 µM; in data set [5], 212 µM; in data set [8], above 63 µM. Further, the EC50 at 48 h in data set [6] is 58 µM; in data set [7] it was 45 µM.
Regarding `O=S(=O)(Nc1ccc(-c2nc3cc(NS(=O)(=O)c4ccc5ncsc5c4)ccc3o2)cc1)c1ccc2ncsc2c1`, in data set [1], the EC50 was determined as 25 µM. The IC50 in data set [2] was 0.81 µM; in data set [3], 49 µM; in data set [4], 0.55 µM; in data set [5] it was above 250 µM; in data set [8], above 63 µM. In addition, the EC50 at 48 h in data set [6] came out at 30 µM; in data set [7], 95 µM.
Consider `O=S(=O)(Nc1ccc(-c2nc3cc(NS(=O)(=O)C(F)(F)F)ccc3o2)cc1)C(F)(F)F`, for which the EC50 in data set [1] was above 42 µM. Besides, the IC50 in data set [2] was 40 µM; in data set [3] it was 97 µM; in data set [4], above 250 µM; in data set [5], above 250 µM; in data set [8], above 63 µM. Further, the EC50 at 48 h in data set [6] and in data set [7] was above 100 µM in each case.
For `O=S(=O)(Nc1ccc(-c2nc3cc(NS(=O)(=O)c4cccs4)ccc3o2)cc1)c1cccs1`, the EC50 in data set [1] is 17 µM. In addition, the IC50 was 4.6 µM in data set [2]; 57 µM in data set [3]; 6.7 µM in data set [4]; above 250 µM in data set [5]; above 63 µM in data set [8]. For the same compound, the half-maximal effective concentration (EC50) at 48 h in data set [6] was 44 µM; in data set [7], 26 µM.
Consider `O=S(=O)(Nc1ccc(-c2nc3cc(NS(=O)(=O)c4ccc(Cl)cc4)ccc3o2)cc1)c1ccc(Cl)cc1`, for which, in data set [1], the EC50 came out at 3.2 µM. Further, the IC50 in data set [2] was 23 µM; in data set [3], 96 µM; in data set [4] it was 35 µM; in data set [5], above 250 µM; in data set [8] it was above 63 µM. The EC50 at 48 h came out at 18 µM in data set [6] and 13 µM in data set [7].
In the case of `O=S(=O)(Nc1ccc(-c2nc3cc(NS(=O)(=O)c4ccc(Br)cc4)ccc3o2)cc1)c1ccc(Br)cc1`, the EC50 in data set [1] was found to be 2.4 µM. The IC50 in data set [2] was 24 µM; in data set [3], above 100 µM; in data set [4], 19 µM; in data set [5], above 250 µM; in data set [8], above 63 µM. The EC50 at 48 h in data set [6] worked out at 16 µM; in data set [7], 22 µM.
On to `O=S(=O)(Nc1ccc(-c2nc3cc(NS(=O)(=O)c4ccc5nsnc5c4)ccc3o2)cc1)c1ccc2nsnc2c1`, for which, in data set [1], the EC50 is above 42 µM. Also, the IC50 in data set [2] was 3.7 µM; in data set [3], 62 µM; in data set [4] it was 1.7 µM; in data set [5], 127 µM; in data set [8], above 63 µM. The EC50 at 48 h in data set [6] worked out at 45 µM; in data set [7] it was 76 µM.
On to `O=S(=O)(Nc1ccc(-c2nc3cc(NS(=O)(=O)c4ccccc4Br)ccc3o2)cc1)c1ccccc1Br`, for which, in data set [1], the EC50 was determined as 28 µM. Moreover, the IC50 in data set [2] was 63 µM; in data set [3], above 100 µM; in data set [4] it was 144 µM; in data set [5] it was above 250 µM; in data set [8], above 63 µM. The EC50 at 48 h worked out at 37 µM in data set [6] and 28 µM in data set [7].
Consider `O=S(=O)(Nc1ccc(-c2nc3cc(NS(=O)(=O)c4ccccc4Cl)ccc3o2)cc1)c1ccccc1Cl`, for which the EC50 in data set [1] was found to be 5.9 µM. The IC50 in data set [2] was 46 µM; in data set [3] it was above 100 µM; in data set [4], 131 µM; in data set [5] it was above 250 µM; in data set [8], above 63 µM. Further, the EC50 at 48 h in data set [6] was 24 µM; in data set [7], 75 µM.
